# Assay results from patent US12504423B2, “Human in vitro cardiotoxicity model” (Brown University, priority 2020, dated 2025).
# Where two headings read alike, the source gives them in different places.
# Tests used:
# hiPSC-CM microtissues [1] = test: Cardiac TEEM: optical mapping of action potentials in 3D human cardiac microtissues
# Description: Optical mapping and automated action potential duration analysis. The inventors used an Olympus MVX10 microscope to image 1.2×1.2-mm^2 regions. Microtissues were loaded with voltage-sensitive di-4-ANEPPS (5 μM for ten minutes at 35° C.) for measurements of membrane potential (Vm). […] Fluorescence images were filtered using nonlinear bilateral filter (spatial filter: 5×5 window, temporal filter: 21-point window) to preserve action potential upstrokes from blurring. Typically, four microtissues were recorded simultaneously/scan at this magnification. A single microtissue is typically covered by ˜60 pixels at this magnification. The pixels with action potentials were identified from Fast Fourier transformation (FFT) of fluorescence signals. After appropriate thresholding and image segmentation, the region of each microtissue was grouped and the fluorescence signals from the pixels in the same microtissue were average and used for action potential analysis.
# Optical mapping and automated action potential analysis (alternative). Microtissues were loaded with voltage-sensitive di-4-ANEPPS (5 μM for 10 min at 35° C.) for measurements of membrane potential (Vm). […] Typically, four microtissues were recorded simultaneously per scan at this magnification. A step-by-step illustration of automated data analysis is available in FIGS. 4A-G. Briefly, the pixels with APs were identified from Fast Fourier transformation (FFT) of fluorescence signals. After appropriate thresholding and image segmentation, the region of each microtissue was grouped and the fluorescence signals from the pixels in the same microtissue were average and used for action potential analysis.
# Validation and screening of toxicants for arrhythmogenic risk. […] Concentrations are selected to span human exposure levels or blood serum levels and quantify dose-dependent changes over a wide range (with a goal of more than 10,000× change in concentration and at least 4-6 doses). A single mold of microtissues is imaged for approximately 1 hour to assure quality recordings without signal degradation due to tissue degeneration, enabling measurement under control conditions (zero compound) and 3 doses.
# Validation and screening of toxicants for arrhythmogenic risk (alternative). […] Microtissues were stimulated with a platinum field stimulation electrode. Myopacer EP field stimulator, IonOptix, Milton, MA, USA). […] BPA was dissolved in 10% ethanol stock solution and diluted in Tyrode solution to the final concentration. Microtissues were exposed to vehicle (DMSO or ethanol) and the indicated concentrations of test compounds for 20 min, and action potentials were measured as described above.
# The Cardiac Tissue-Engineered Model (TEEM) uses human cardiomyocytes derived from human pluripotent stem cells, which express all the human proteins, ion channels and currents necessary for assessing a human-specific arrhythmic and cardiotoxic response, including the seven critical ion channels identified by the FDA's CiPA initiative. […] The intensity of the signal gives a reading of voltage (in the millivolt range) overtime, which is the action potential trace. A similar dye that fluoresces in response to the intracellular calcium (Ca^2+) concentration gives a calcium transient (CaT) for each activation of each cardiac microtissue. See above.
# [2] = test system: late sodium current (INa,late); conditions: read-out: IC50, late sodium current (INa,late) block; cited from earlier work
# [3] = 1000 mg b.i.d.; blood serum; cited from earlier work
# [4] = Ranolazine steady-state Cmax in blood serum (FDA documentation); assay type: in vivo; conditions: human, 1000 mg, 1000 mg b.i.d., bracketed conversion
# peak ICa = peak ICa (Homo sapiens, UniProt Q13936); conditions: cited from earlier work
# Sequence of peak ICa (Q13936 whole entry): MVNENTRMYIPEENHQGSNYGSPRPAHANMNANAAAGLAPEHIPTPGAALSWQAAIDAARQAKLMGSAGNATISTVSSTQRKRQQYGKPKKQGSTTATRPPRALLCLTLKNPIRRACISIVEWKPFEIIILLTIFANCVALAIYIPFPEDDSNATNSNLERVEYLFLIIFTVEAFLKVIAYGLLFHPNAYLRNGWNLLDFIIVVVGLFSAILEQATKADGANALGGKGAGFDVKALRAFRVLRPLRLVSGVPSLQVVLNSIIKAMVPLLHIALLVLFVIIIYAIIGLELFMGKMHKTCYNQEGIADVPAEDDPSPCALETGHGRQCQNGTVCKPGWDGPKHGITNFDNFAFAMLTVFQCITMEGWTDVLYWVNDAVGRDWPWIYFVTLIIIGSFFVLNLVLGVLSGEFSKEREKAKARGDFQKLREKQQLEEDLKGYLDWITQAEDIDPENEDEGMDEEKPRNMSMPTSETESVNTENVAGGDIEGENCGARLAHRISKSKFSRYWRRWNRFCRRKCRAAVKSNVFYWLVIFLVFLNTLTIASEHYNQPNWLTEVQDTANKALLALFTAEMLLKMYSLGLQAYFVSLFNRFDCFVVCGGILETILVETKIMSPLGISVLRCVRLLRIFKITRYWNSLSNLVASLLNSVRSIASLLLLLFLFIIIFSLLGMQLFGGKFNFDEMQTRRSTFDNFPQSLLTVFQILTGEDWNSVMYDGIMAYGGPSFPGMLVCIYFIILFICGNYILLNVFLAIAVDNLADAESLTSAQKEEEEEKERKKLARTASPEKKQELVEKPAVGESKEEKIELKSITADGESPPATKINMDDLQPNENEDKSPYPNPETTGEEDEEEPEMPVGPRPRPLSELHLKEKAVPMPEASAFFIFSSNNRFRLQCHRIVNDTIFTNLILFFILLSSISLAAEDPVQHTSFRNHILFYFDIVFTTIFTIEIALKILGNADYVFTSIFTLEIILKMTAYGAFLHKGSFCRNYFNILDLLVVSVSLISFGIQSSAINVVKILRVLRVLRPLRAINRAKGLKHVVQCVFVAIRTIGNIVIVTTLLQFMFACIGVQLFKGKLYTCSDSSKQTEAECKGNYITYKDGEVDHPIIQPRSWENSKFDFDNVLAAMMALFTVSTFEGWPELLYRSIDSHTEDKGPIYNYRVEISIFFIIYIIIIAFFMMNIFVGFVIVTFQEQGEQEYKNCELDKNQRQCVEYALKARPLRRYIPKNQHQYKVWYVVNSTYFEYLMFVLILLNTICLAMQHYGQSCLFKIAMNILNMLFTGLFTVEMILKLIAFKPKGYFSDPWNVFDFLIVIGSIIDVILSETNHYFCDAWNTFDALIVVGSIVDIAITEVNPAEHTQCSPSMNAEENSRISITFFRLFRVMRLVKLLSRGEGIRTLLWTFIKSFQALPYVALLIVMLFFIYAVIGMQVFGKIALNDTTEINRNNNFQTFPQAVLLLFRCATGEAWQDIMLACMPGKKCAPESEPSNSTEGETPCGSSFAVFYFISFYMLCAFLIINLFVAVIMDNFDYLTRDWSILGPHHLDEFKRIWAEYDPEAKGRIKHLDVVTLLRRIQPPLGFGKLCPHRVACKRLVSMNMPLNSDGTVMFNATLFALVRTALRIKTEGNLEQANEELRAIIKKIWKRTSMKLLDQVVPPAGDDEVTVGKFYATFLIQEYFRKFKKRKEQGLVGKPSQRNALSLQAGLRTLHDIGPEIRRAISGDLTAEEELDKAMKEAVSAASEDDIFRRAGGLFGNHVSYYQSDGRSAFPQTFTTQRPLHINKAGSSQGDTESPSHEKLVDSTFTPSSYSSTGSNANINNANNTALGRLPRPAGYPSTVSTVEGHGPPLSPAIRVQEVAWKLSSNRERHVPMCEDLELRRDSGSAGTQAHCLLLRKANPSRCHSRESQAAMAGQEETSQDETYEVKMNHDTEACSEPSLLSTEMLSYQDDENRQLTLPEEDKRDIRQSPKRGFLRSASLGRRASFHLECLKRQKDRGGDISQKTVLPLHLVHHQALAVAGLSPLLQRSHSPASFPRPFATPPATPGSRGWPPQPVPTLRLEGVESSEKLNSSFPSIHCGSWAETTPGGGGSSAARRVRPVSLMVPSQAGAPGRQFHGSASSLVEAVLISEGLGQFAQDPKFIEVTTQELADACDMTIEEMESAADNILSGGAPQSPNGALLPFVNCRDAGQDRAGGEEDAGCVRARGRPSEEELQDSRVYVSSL
# Sequence of peak ICa (Q08289 whole entry partner): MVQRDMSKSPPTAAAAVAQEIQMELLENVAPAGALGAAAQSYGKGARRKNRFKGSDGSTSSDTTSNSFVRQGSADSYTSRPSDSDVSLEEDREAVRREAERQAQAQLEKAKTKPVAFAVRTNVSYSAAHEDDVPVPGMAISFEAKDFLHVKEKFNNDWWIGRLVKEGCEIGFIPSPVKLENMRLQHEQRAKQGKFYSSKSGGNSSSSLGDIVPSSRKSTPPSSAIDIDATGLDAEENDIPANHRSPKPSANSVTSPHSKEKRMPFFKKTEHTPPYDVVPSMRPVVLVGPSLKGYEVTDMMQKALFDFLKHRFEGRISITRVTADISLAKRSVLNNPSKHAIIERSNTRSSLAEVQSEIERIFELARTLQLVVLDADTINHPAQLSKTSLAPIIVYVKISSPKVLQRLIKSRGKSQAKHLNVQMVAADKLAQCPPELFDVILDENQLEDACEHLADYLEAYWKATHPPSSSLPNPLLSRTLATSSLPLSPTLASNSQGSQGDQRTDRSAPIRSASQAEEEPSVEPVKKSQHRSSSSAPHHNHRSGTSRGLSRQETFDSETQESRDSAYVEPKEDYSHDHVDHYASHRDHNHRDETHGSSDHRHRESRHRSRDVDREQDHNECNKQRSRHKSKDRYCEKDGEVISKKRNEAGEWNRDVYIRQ
# Sequence of peak ICa (P54289 25-956 partner limits assumed): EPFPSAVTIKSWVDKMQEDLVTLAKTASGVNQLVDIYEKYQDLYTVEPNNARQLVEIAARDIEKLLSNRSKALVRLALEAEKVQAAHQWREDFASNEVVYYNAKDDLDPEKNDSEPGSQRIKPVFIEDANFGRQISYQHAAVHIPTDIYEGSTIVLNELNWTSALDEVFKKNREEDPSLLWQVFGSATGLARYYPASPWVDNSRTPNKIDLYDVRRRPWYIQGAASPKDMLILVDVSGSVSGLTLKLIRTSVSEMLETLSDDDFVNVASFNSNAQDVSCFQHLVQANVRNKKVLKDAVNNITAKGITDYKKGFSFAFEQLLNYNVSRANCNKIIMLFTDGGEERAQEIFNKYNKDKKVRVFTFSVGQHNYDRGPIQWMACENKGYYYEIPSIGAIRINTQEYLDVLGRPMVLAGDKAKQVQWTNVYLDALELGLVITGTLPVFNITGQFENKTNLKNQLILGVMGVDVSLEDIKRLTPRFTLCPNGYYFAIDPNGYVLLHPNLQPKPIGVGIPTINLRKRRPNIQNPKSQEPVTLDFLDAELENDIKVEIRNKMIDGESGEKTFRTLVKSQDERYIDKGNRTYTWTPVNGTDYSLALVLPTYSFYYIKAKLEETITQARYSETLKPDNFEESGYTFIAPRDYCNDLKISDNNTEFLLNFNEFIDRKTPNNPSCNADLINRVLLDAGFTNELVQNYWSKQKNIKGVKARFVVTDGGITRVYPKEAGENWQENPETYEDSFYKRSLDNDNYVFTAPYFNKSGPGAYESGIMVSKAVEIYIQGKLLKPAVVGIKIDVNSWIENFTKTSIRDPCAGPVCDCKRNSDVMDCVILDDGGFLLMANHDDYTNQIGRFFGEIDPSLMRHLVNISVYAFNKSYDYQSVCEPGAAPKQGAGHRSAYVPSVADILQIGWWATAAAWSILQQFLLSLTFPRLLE
# Sequence of peak ICa (P54289 957-1103 partner limits assumed): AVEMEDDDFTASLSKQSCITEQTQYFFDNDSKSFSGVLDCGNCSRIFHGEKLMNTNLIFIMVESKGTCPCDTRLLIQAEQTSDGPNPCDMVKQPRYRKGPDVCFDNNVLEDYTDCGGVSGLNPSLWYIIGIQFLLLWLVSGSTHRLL
# INCX = INCX (Homo sapiens, UniProt P32418); conditions: cited from earlier work
# late ICa = late ICa (Homo sapiens, UniProt Q13936); conditions: cited from earlier work
# Sequence of late ICa (Q13936 whole entry): as the sequence (Q13936 whole entry) above
# Sequence of late ICa (Q08289 whole entry partner): as the sequence (Q08289 whole entry partner) above
# Sequence of late ICa (P54289 25-956 partner limits assumed): as the sequence (P54289 25-956 partner limits assumed) above
# Sequence of late ICa (P54289 957-1103 partner limits assumed): as the sequence (P54289 957-1103 partner limits assumed) above
# sodium channel Nav1.5 = sodium channel Nav1.5 (Homo sapiens, UniProt Q14524); conditions: read-out: IC50, block of sodium channel Nav1.5; cited from earlier work
# rats = conditions: rodents; greater sensitivity in female rats than male rats; cited from earlier work
# hiPSC-CM microtissues [5] = test: Calcium transient (CaT) recording of spontaneous activity in hiPSC-CM microtissues; assay type: cell-based, human; conditions: 100 nM
# Description: FIGS. 1A-C are a set of graphs showing the stimulation protocol and CaT metrics. […] CaTs were recorded using Rhod-2/AM. […] Activation Interval (AI), the time between two CaTs, will be measured before and after drug perfusion to detect altered spontaneous activity. CaTs recorded with the genetically encoded optogenetic probe GCaMP.
# The inventors also developed a platform suitable for cardiotoxicity testing that can detect alteration in Cai release and removal processes from hiPSC-CM microtissues by measuring detailed kinetic parameters of Cai dynamics during a proposed stimulation protocol as shown in FIGS. 1A-C.
smiles,measurement,setting,value
"COc1ccccc1OCC(O)CN1CCN(CC(=O)Nc2c(C)cccc2C)CC1 (stereo not shown) [Ranolazine, ranolazine]",Dose-dependent mean difference of APD30,"hiPSC-CM microtissues [1]; human, 20 min, 2 μM",4.692
same,Dose-dependent mean difference of APD60,"hiPSC-CM microtissues [1]; human, 20 min, 2 μM",−2.806
same,Dose-dependent mean difference of APD80,"hiPSC-CM microtissues [1]; human, 20 min, 2 μM",4.629
same,Dose-dependent mean difference of APDM×R,"hiPSC-CM microtissues [1]; human, 20 min, 2 μM",−9.87
same,Dose-dependent mean difference of APDtri,"hiPSC-CM microtissues [1]; human, 20 min, 2 μM",−7.031
same,Dose-dependent mean difference of Rise Time,"hiPSC-CM microtissues [1]; human, 20 min, 2 μM",0.1436
same,Dose-dependent mean difference of APD30,"hiPSC-CM microtissues [1]; human, 20 min, 10 μM",20.71
same,Dose-dependent mean difference of APD60,"hiPSC-CM microtissues [1]; human, 20 min, 10 μM",20.5335
same,Dose-dependent mean difference of APD80,"hiPSC-CM microtissues [1]; human, 20 min, 10 μM",79.1112
same,Dose-dependent mean difference of APDM×R,"hiPSC-CM microtissues [1]; human, 20 min, 10 μM",13.1316
same,Dose-dependent mean difference of APDtri,"hiPSC-CM microtissues [1]; human, 20 min, 10 μM",−7.337
same,Dose-dependent mean difference of Rise Time,"hiPSC-CM microtissues [1]; human, 20 min, 10 μM",1.025
same,Dose-dependent mean difference of APD30,"hiPSC-CM microtissues [1]; human, 20 min, 100 μM",57.9565
same,Dose-dependent mean difference of APD60,"hiPSC-CM microtissues [1]; human, 20 min, 100 μM",108.574
same,Dose-dependent mean difference of APD80,"hiPSC-CM microtissues [1]; human, 20 min, 100 μM",242.133
same,Dose-dependent mean difference of APDM×R,"hiPSC-CM microtissues [1]; human, 20 min, 100 μM",353.211
same,Dose-dependent mean difference of APDtri,"hiPSC-CM microtissues [1]; human, 20 min, 100 μM",244.733
same,Dose-dependent mean difference of Rise Time,"hiPSC-CM microtissues [1]; human, 20 min, 100 μM",12.5916
same,IC50,[2],5.9 µM
same,mean steady-state Cmax,[3],2569 ng/mL
same,Cmax,[4]; read-out: 95% of Cmax values,0.98 to 14.2 µM
same,Cmax,[4]; read-out: mean steady-state Cmax,6 µM
same,IC50,peak ICa,296 µM
same,IC50,INCX,91 µM
same,IC50,late ICa,50 µM
COC(=O)C1=C(C)NC(C)=C([N+](=O)[O-])C1c1ccccc1C(F)(F)F (stereo not shown) [BayK8644],effect on APDtri,hiPSC-CM microtissues [1],no effect on APDtri
Nc1ccncc1 [4-AP],effect on APDtri,hiPSC-CM microtissues [1],no effect on APDtri
same,APD,hiPSC-CM microtissues [1]; 0.5 mM,APD prolongation
same,slope of APDtri versus APDMxR,"hiPSC-CM microtissues [1]; 0.5 mM, p=0.199",did not steepen
"CC(C)(c1ccc(O)cc1)c1ccc(O)cc1 [BPA, bisphenol-A]",action potential duration measurements,hiPSC-CM microtissues [1],shifts action potential duration measurements
same,action potential rise time,hiPSC-CM microtissues [1],slowed action potential rise time
same,stimulation delay,hiPSC-CM microtissues [1],increased stimulation delay
same,APD30 and APD50 relative to APD80,"hiPSC-CM microtissues [1]; female, human, 20 min",APD30 and APD50 were shortened more than APD80
same,Dose-dependent mean difference of APD30,"hiPSC-CM microtissues [1]; human, 20 min, 1 nM",34.5043
same,Dose-dependent mean difference of APD60,"hiPSC-CM microtissues [1]; human, 20 min, 1 nM",37.3566
same,Dose-dependent mean difference of APD80,"hiPSC-CM microtissues [1]; human, 20 min, 1 nM",42.7763
same,Dose-dependent mean difference of APDM×R,"hiPSC-CM microtissues [1]; human, 20 min, 1 nM",34.0012
same,Dose-dependent mean difference of APDtri,"hiPSC-CM microtissues [1]; human, 20 min, 1 nM",−3.327
same,Dose-dependent mean difference of Rise Time,"hiPSC-CM microtissues [1]; human, 20 min, 1 nM",1.176
same,Dose-dependent mean difference of APD30,"hiPSC-CM microtissues [1]; human, 20 min, 10 nM",−15.3826
same,Dose-dependent mean difference of APD60,"hiPSC-CM microtissues [1]; human, 20 min, 10 nM",−14.0569
same,Dose-dependent mean difference of APD80,"hiPSC-CM microtissues [1]; human, 20 min, 10 nM",11.1129
same,Dose-dependent mean difference of APDM×R,"hiPSC-CM microtissues [1]; human, 20 min, 10 nM",−14.786
same,Dose-dependent mean difference of APDtri,"hiPSC-CM microtissues [1]; human, 20 min, 10 nM",−0.672
same,Dose-dependent mean difference of Rise Time,"hiPSC-CM microtissues [1]; human, 20 min, 10 nM",−0.3497
same,Dose-dependent mean difference of APD30,"hiPSC-CM microtissues [1]; human, 20 min, 100 nM",−17.808
same,Dose-dependent mean difference of APD60,"hiPSC-CM microtissues [1]; human, 20 min, 100 nM",−16.8623
same,Dose-dependent mean difference of APD80,"hiPSC-CM microtissues [1]; human, 20 min, 100 nM",10.0440
same,Dose-dependent mean difference of APDM×R,"hiPSC-CM microtissues [1]; human, 20 min, 100 nM",−23.7763
same,Dose-dependent mean difference of APDtri,"hiPSC-CM microtissues [1]; human, 20 min, 100 nM",−6.828
same,Dose-dependent mean difference of Rise Time,"hiPSC-CM microtissues [1]; human, 20 min, 100 nM",−1.734
same,Dose-dependent mean difference of APD30,"hiPSC-CM microtissues [1]; human, 20 min, 1000 nM",−28.3006
same,Dose-dependent mean difference of APD60,"hiPSC-CM microtissues [1]; human, 20 min, 1000 nM",−31.0489
same,Dose-dependent mean difference of APD80,"hiPSC-CM microtissues [1]; human, 20 min, 1000 nM",−4.641
same,Dose-dependent mean difference of APDM×R,"hiPSC-CM microtissues [1]; human, 20 min, 1000 nM",−40.7783
same,Dose-dependent mean difference of APDtri,"hiPSC-CM microtissues [1]; human, 20 min, 1000 nM",−9.615
same,Dose-dependent mean difference of Rise Time,"hiPSC-CM microtissues [1]; human, 20 min, 1000 nM",−2.203
same,IC50,sodium channel Nav1.5,25 µM
same,concentration promoting arrhythmias,rats,0.001 µM
"CC(C)NCC(O)c1ccc(O)c(O)c1 (stereo not shown) [Isoproterenol, isoproterenol]",average reduction of APD80,"hiPSC-CM microtissues [1]; human, 20 min, 100 nM",45 milliseconds
same,"spontaneous activity (CaTs, GCaMP)",hiPSC-CM microtissues [5],spontaneous activity increased
